Reference: PMC12332667, “Role of Structural Modifications in Peptidomimetic Compounds as Potential Antimicrobial Agents against Staphylococcus aureus and Streptococcus pyogenes: Balancing Bioavailability, Safety, and Antimicrobial Activity” (ACS Omega, 2025)
Values after ≈ are worked out from the molar mass of the structure shown. Values joined by “and” are separate entries in the source; they are usually repeats but may differ in a detail not shown here. Equal entries are not always repeated. Residues, ends and D or L forms follow the SMILES beside them.

Assays:
S. schleiferi c.i. = assay: MIC/MBC broth microdilution, S. schleiferi; type: cell-based, Staphylococcus schleiferi
Outline: (§1)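 Standard NCCLS broth microdilution in BHI broth, inoculum approx. 10^5 CFU/mL, serially diluted peptidomimetics, 18 h at 37 °C. MIC was the lowest concentration with no obvious growth (≥90% inhibition versus untreated); MBC was the lowest giving ≤3 colonies on subculture (≥99.9% kill).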

P. aeruginosa ATCC 10145 = assay: MIC/MBC broth microdilution, P. aeruginosa; type: cell-based
Outline: as §1

S. pyogenes ATCC 19615 = assay: MIC/MBC broth microdilution, S. pyogenes; type: cell-based, Streptococcus pyogenes; conditions: S. pyogenes
Outline: as §1

[1] = test system: immortalized human HaCaT keratinocytes; assay: XTT cell proliferation assay, keratinocytes; type: cell-based; conditions: for effect on proliferation, in words: XTT, 48 and 72 h, 0.01–150 μg/mL
Outline: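 Cells at 37 °C, 5% CO2 received peptidomimetics in serum-free HG-DMEM for 48 or 72 h; for 72 h, half the medium was renewed and peptide re-added at 48 h. XTT reagent was then incubated 4 h and absorbance read at 490 nm; Mann–Whitney U test, p ≤ 0.05.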

P. vulgaris ATCC 6896 = assay: MIC/MBC broth microdilution, P. vulgaris; type: cell-based, Proteus vulgaris
Outline: as §1

S. cohnii c.i. = assay: MIC/MBC broth microdilution, S. cohnii; type: cell-based, Staphylococcus cohnii
Outline: as §1

[2] = test system: immortalized human keratinocytes (HaCaT); assay: LDH cytotoxicity test, keratinocytes; type: cell-based; conditions: for cytotoxicity (LDH), in words: 50-150 μg/mL
Outline: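 HaCaT keratinocytes and 46BR.1N fibroblasts, 5000 cells per well, grown 24 h, then exposed to peptidomimetics at 50, 100 and 150 μg/mL in serum-free medium for 48 h. LDH release in supernatant read at 450 nm, normalized to untreated (0%) and 1% Triton X-100 (maximal) controls.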

E. coli ATCC 25922 = assay: MIC/MBC broth microdilution, E. coli; type: cell-based, Escherichia coli
Outline: as §1

S. agalactiae ATCC 27956 = assay: MIC/MBC broth microdilution, S. agalactiae; type: cell-based, Streptococcus agalactiae; conditions: S. agalactiae
Outline: as §1

S. aureus ATCC 43300 = assay: MIC/MBC broth microdilution, S. aureus; type: cell-based, Staphylococcus aureus; conditions: S. aureus

CC(C)[C@H](NC(=O)[C@H](Cc1c[nH]cn1)NC(=O)[C@H](CCCNC(=N)N)NC(=O)OCc1ccccc1)C(=O)NCCc1ccccc1 [Compound A-219] (HELM PEPTIDE1{[O=C(OCc1ccccc1)[*:2]].R.H.V.[c1ccc(CCN[*:1])cc1]}$$$$V2.0)
MIC (S. schleiferi c.i.; H2O): > 512 µg/mL
MIC (S. schleiferi c.i.; water additive DMSO): > 512 µg/mL
MIC (S. schleiferi c.i.; water additive EtOH): > 512 µg/mL
MBC (P. aeruginosa ATCC 10145; H2O): > 512 µg/mL
MIC (P. aeruginosa ATCC 10145; H2O): 512 µg/mL (≈ 790 µM)
MBC (P. aeruginosa ATCC 10145; water additive DMSO): 512 µg/mL (≈ 790 µM)
MIC (P. aeruginosa ATCC 10145; water additive DMSO): 256 µg/mL (≈ 395 µM)
MBC (P. aeruginosa ATCC 10145; water additive EtOH): > 512 µg/mL
MIC (P. aeruginosa ATCC 10145; water additive EtOH): 512 µg/mL (≈ 790 µM)
MBC (S. pyogenes ATCC 19615; H2O): 512 µg/mL (≈ 790 µM)
MIC (S. pyogenes ATCC 19615; H2O): 512 µg/mL (≈ 790 µM)
MBC (S. pyogenes ATCC 19615; water additive DMSO): 512 µg/mL (≈ 790 µM)
MIC (S. pyogenes ATCC 19615; water additive DMSO): 512 µg/mL (≈ 790 µM)
MBC (S. pyogenes ATCC 19615; water additive EtOH): 512 µg/mL (≈ 790 µM)
MIC (S. pyogenes ATCC 19615; water additive EtOH): 512 µg/mL (≈ 790 µM)
pro-proliferative effect above control ([1]; A-196 0.01–10 μg/mL, A-219 above 0.1 μg/mL, A-213 lower concentrations): around 20%
effect on proliferation, in words [1]: best pro-proliferative effect
MIC (P. vulgaris ATCC 6896; H2O): > 512 µg/mL
MIC (P. vulgaris ATCC 6896; water additive DMSO): > 512 µg/mL
MIC (P. vulgaris ATCC 6896; water additive EtOH): > 512 µg/mL
MIC (S. cohnii c.i.; H2O): > 512 µg/mL
MIC (S. cohnii c.i.; water additive DMSO): > 512 µg/mL
MIC (S. cohnii c.i.; water additive EtOH): > 512 µg/mL
cytotoxicity (LDH), in words ([2]; 48 h): no adverse effects
MIC (E. coli ATCC 25922; H2O): > 512 µg/mL
MIC (E. coli ATCC 25922; water additive DMSO): > 512 µg/mL
MIC (E. coli ATCC 25922; water additive EtOH): > 512 µg/mL
MIC (S. agalactiae ATCC 27956; H2O): > 512 µg/mL
MIC (S. agalactiae ATCC 27956; water additive DMSO): > 512 µg/mL
MIC (S. agalactiae ATCC 27956; water additive EtOH): > 512 µg/mL
MIC (S. aureus ATCC 43300; H2O): > 512 µg/mL
MIC (S. aureus ATCC 43300; water additive DMSO): > 512 µg/mL
MIC (S. aureus ATCC 43300; water additive EtOH): > 512 µg/mL

CC(C)[C@H](NC(=O)[C@H](Cc1c[nH]cn1)NC(=O)[C@H](CCCCN)NC(=O)OCc1ccccc1)C(=O)NCCc1ccccc1 [Compound A-220] (HELM PEPTIDE1{[O=C(OCc1ccccc1)[*:2]].K.H.V.[c1ccc(CCN[*:1])cc1]}$$$$V2.0)
MIC (S. schleiferi c.i.; H2O): > 512 µg/mL
MIC (S. schleiferi c.i.; water additive DMSO): > 512 µg/mL
MIC (S. schleiferi c.i.; water additive EtOH): > 512 µg/mL
MBC (P. aeruginosa ATCC 10145; H2O): > 512 µg/mL
MIC (P. aeruginosa ATCC 10145; H2O): 512 µg/mL (≈ 826 µM)
MBC (P. aeruginosa ATCC 10145; water additive DMSO): > 512 µg/mL
MIC (P. aeruginosa ATCC 10145; water additive DMSO): 512 µg/mL (≈ 826 µM)
MBC (P. aeruginosa ATCC 10145; water additive EtOH): > 512 µg/mL
MIC (P. aeruginosa ATCC 10145; water additive EtOH): 512 µg/mL (≈ 826 µM)
MBC (S. pyogenes ATCC 19615; H2O): > 512 µg/mL
MIC (S. pyogenes ATCC 19615; H2O): 512 µg/mL (≈ 826 µM)
MBC (S. pyogenes ATCC 19615; water additive DMSO): 256 µg/mL (≈ 413 µM)
MBC (S. pyogenes ATCC 19615; water additive EtOH): 512 µg/mL (≈ 826 µM)
MIC (S. pyogenes ATCC 19615; water additive EtOH): 512 µg/mL (≈ 826 µM)
effect on proliferation, in words [1]: did not exert any negative impact
MIC (P. vulgaris ATCC 6896; H2O): > 512 µg/mL
MIC (P. vulgaris ATCC 6896; water additive DMSO): > 512 µg/mL
MIC (P. vulgaris ATCC 6896; water additive EtOH): > 512 µg/mL
MBC (S. cohnii c.i.; H2O): 512 µg/mL (≈ 826 µM)
MIC (S. cohnii c.i.; H2O): 256 µg/mL (≈ 413 µM)
MBC (S. cohnii c.i.; water additive DMSO): 512 µg/mL (≈ 826 µM)
MIC (S. cohnii c.i.; water additive DMSO): 256 µg/mL (≈ 413 µM)
MBC (S. cohnii c.i.; water additive EtOH): 512 µg/mL (≈ 826 µM)
MIC (S. cohnii c.i.; water additive EtOH): 256 µg/mL (≈ 413 µM)
cytotoxicity (LDH) ([2]; 48 h, 50, 100 and 150 μg/mL, vs 1% Triton X-100): 10–15% and 10%
concentration at which cytotoxic effect starts ([2]; LDH, 48 h): > 150 µg/mL
MBC (E. coli ATCC 25922; H2O): 512 µg/mL (≈ 826 µM)
MIC (E. coli ATCC 25922; H2O): 512 µg/mL (≈ 826 µM)
MIC (E. coli ATCC 25922; water additive DMSO): > 512 µg/mL
MBC (E. coli ATCC 25922; water additive EtOH): 512 µg/mL (≈ 826 µM)
MIC (E. coli ATCC 25922; water additive EtOH): 512 µg/mL (≈ 826 µM)
MBC (S. agalactiae ATCC 27956; H2O): 512 µg/mL (≈ 826 µM)
MIC (S. agalactiae ATCC 27956; H2O): 512 µg/mL (≈ 826 µM)
MBC (S. agalactiae ATCC 27956; water additive DMSO): 512 µg/mL (≈ 826 µM)
MIC (S. agalactiae ATCC 27956; water additive DMSO): 512 µg/mL (≈ 826 µM)
MBC (S. agalactiae ATCC 27956; water additive EtOH): 512 µg/mL (≈ 826 µM)
MIC (S. agalactiae ATCC 27956; water additive EtOH): 512 µg/mL (≈ 826 µM)
MBC (S. aureus ATCC 43300; H2O): 512 µg/mL (≈ 826 µM)
MIC (S. aureus ATCC 43300; H2O): 512 µg/mL (≈ 826 µM)
MBC (S. aureus ATCC 43300; water additive DMSO): 512 µg/mL (≈ 826 µM)
MIC (S. aureus ATCC 43300; water additive DMSO): 512 µg/mL (≈ 826 µM)
MBC (S. aureus ATCC 43300; water additive EtOH): 512 µg/mL (≈ 826 µM)
MIC (S. aureus ATCC 43300; water additive EtOH): 512 µg/mL (≈ 826 µM)

CC(C)[C@H](NC(=O)[C@H](CCCNC(=N)N)NC(=O)[C@H](CCCNC(=N)N)NC(=O)OCc1ccccc1)C(=O)NCCc1ccccc1 [Compound A-221] (HELM PEPTIDE1{[O=C(OCc1ccccc1)[*:2]].R.R.V.[c1ccc(CCN[*:1])cc1]}$$$$V2.0)
MIC (S. schleiferi c.i.; H2O): > 512 µg/mL
MIC (S. schleiferi c.i.; water additive DMSO): > 512 µg/mL
MIC (S. schleiferi c.i.; water additive EtOH): > 512 µg/mL
MBC (P. aeruginosa ATCC 10145; H2O): 256 µg/mL (≈ 384 µM)
MIC (P. aeruginosa ATCC 10145; water additive DMSO): 32 µg/mL (≈ 48 µM)
MBC (S. pyogenes ATCC 19615; H2O): 256 µg/mL (≈ 384 µM)
MBC (S. pyogenes ATCC 19615; water additive DMSO): > 512 µg/mL
MIC (S. pyogenes ATCC 19615; water additive DMSO): 512 µg/mL (≈ 768 µM)
MBC (S. pyogenes ATCC 19615; water additive EtOH): 256 µg/mL (≈ 384 µM)
effect on proliferation, in words [1]: pro-proliferating effect at lower concentrations followed by an antiproliferative effect at higher concentrations
MIC (P. vulgaris ATCC 6896; H2O): > 512 µg/mL
MIC (P. vulgaris ATCC 6896; water additive DMSO): > 512 µg/mL
MIC (P. vulgaris ATCC 6896; water additive EtOH): > 512 µg/mL
MBC (S. cohnii c.i.; H2O): 256 µg/mL (≈ 384 µM)
MBC (S. cohnii c.i.; water additive DMSO): 256 µg/mL (≈ 384 µM)
MBC (S. cohnii c.i.; water additive EtOH): 256 µg/mL (≈ 384 µM)
cytotoxicity (LDH), in words ([2]; 48 h): no adverse effects
MIC (E. coli ATCC 25922; H2O): > 512 µg/mL
MIC (E. coli ATCC 25922; water additive DMSO): > 512 µg/mL
MIC (E. coli ATCC 25922; water additive EtOH): > 512 µg/mL
MBC (S. agalactiae ATCC 27956; H2O): 512 µg/mL (≈ 768 µM)
MIC (S. agalactiae ATCC 27956; H2O): 256 µg/mL (≈ 384 µM)
MBC (S. agalactiae ATCC 27956; water additive DMSO): 512 µg/mL (≈ 768 µM)
MIC (S. agalactiae ATCC 27956; water additive DMSO): 256 µg/mL (≈ 384 µM)
MBC (S. agalactiae ATCC 27956; water additive EtOH): 512 µg/mL (≈ 768 µM)
MIC (S. agalactiae ATCC 27956; water additive EtOH): 256 µg/mL (≈ 384 µM)
MBC (S. aureus ATCC 43300; H2O): 512 µg/mL (≈ 768 µM)
MIC (S. aureus ATCC 43300; H2O): 512 µg/mL (≈ 768 µM)
MIC (S. aureus ATCC 43300; water additive DMSO): > 512 µg/mL
MBC (S. aureus ATCC 43300; water additive EtOH): 512 µg/mL (≈ 768 µM)
MIC (S. aureus ATCC 43300; water additive EtOH): 256 µg/mL (≈ 384 µM)
